Reference: patent US7226625B2, “Identification of compositions, compositions, and methods of treatment of obesity and overweight conditions” (Phytomyco Research Corporation, priority 2003, dated 2007)

Experiments:
[1] = in vivo; cited from earlier work
adipocytes = assay: assays of this invention (lipolysis, adipocyte differentiation, de-differentiation); type: cell-based, mouse
Procedure: Assay 1. Lipolysis Assay.
In this assay, pre-adipocyte cells are seeded in 96-well plates and are induced to convert to adipocytes over the course of a 10–15 day treament with lipolytic reagents. After cells have converted to adipocytes, the cells are starved, and then subsequently treated with or exposed to test compounds or mixtures of compounds or extracts of plants or fractionated extracts of plants. The adipocytes are treated with test compounds in the presence of a surrounding cell medium. Over the course of 1 to 3 hours after exposure to the test compounds or mixture of compounds, the amount of glycerol present in the cell medium is measured. Glycerol and fatty acids are hydrolysis products of triglycerides, and glycerol is released from cells after enzymatic hydrolysis or breakdown of lipids.
Assay 2. […]
In this assay pre-adipocyte cells require 10 to 15 days to differentiate into adipocytes. […] After cells have undergone the 10–15 days required to differentiate, cells are assessed for GPDH activity. […]
This assay comprises a colorimetric assay to screen for compounds and mixtures of compounds that induce the differentiation of adipocytes to preadipocytes. The presence of such compounds is determined by measuring the relative levels of the enzyme GPDH. […] GPDH levels present in the cells are measured to determine if the cells still express the adipocyte phenotype. […]

3T3-L1 preadipocytes = assay: adipocyte differentiation blocking assay (GPDH level in cell lysates); type: cell-based, mouse; conditions: after 10-fold dilution (FIG. 6)
Description: The adipocyte differentiation blocking assay is an enzyme assay that examines the ability of compounds to block differentiation of preadipocytes to adipocytes by quantifying the level of GPDH in cell lysates (inhibition of adipogenesis). Based on preliminary results using this assay, we selected two plant extracts (designated as PM765, and as PM902, respectively) and collected eluant fractions isolated by HPLC, the extracts being divided into 40 or 120 fractions in collection wells (collected at 30 second or 1 minute HPLC eluant flow time intervals) (FIG. 3). […] MDI treatment is defined as Differentiation media causes the 3T3-L1 preadipocytes (fibroblast cells) to differentiate into adipocytes (fat cells). Differentiation media is composed of: • Per 100 ml of differentiation media • 90 mL DMEM media • 10 mL FCS • 1% pen/strep • 1 ml methylisobutylxanthine (stock 11.5 mg/mL) • 100 ul dexamethasone (stock 0.4 mg/mL) • 1 ml insulin (stock 1 mg/mL)
Inhibition of adipocyte differentiation is assayed by measuring the levels of the enzyme glycerol-3-phosphate dehydrogenase (GPDH). […]
In this assay pre-adipocyte cells require 10 to 15 days to differentiate into adipocytes. […] After cells have undergone the 10–15 days required to differentiate, cells are assessed for GPDH activity.
Results are expressed as a percentage of the untreated control average. […]

leptin = conditions: cited from earlier work
3T3-L1 cells = conditions: GPDH activity, oil red O staining; cited from earlier work

Compound | decrease of the amount of fat absorbed from the diet [1] | activity in the assays of this invention (adipocytes) | blocking of adipocyte differentiation, as a percent of positive control (3T3-L1 preadipocytes) | effect on leptin levels (leptin) | differentiation of preadipocytes (3T3-L1 cells)
CCCCCCCCCCC[C@@H](C[C@@H]1OC(=O)[C@H]1CCCCCC)OC(=O)[C@H](CC(C)C)NC=O [Orlistat] | about 30% | – | – | – | –
C=C[C@](C)(O)CC[C@@H]1[C@@]2(C)CCCC(C)(C)[C@@H]2CC[C@@]1(C)O [sclareol, labdane-14-ene-8,13-diol] | – | active | blocking of adipocyte differentiation | – | –
CC1(C)CCC[C@]2(C)[C@H]3CC(=O)O[C@]3(C)CC[C@@H]12 [sclareolide, 3aR-[3a-alpha, 5a-beta, 9a-alpha, 9b-alpha]-decahydro-3a,6,6,9a-tetramethylnaphtho[2,1-b]furane-2(1H)-one] | – | active | blocking of adipocyte differentiation | – | –
myostatin: adipocyte blocking agent, inhibitor of skeletal muscle growth, member of the TGF-β superfamily | – | – | – | no effect | inhibits differentiation of preadipocytes
